Results: patent US9113629B2, “4-amino-6-(4-substituted-phenyl)-picolinates and 6-amino-2-(4-substituted-phenyl)-pyrimidine-4-carboxylates and their use as herbicides” (DOW AGROSCIENCES LLC, priority 2013, dated 2015)
Where two headings read alike, the source gives them in different places.

How the values were obtained:
[1] = tested on: Key Grass and Sedge Weeds as well as Grass Crops; experiment: Post-emergent Test II herbicidal activity (Table 6); format: in vivo; details: post-emergence, 336 h; for pest or weed control at 70 g/ha: application rate 70 g ai/ha; for pest or weed control at 140 g/ha: application rate 140 g ai/ha
Outline: (§1)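 Visual injury ratings (0 = no injury, 100 = complete kill) were taken 14 d after treatment, relative to untreated plants. Seedlings at the first–second true leaf stage received overhead spray at 187 L/ha; the highest rate was serially diluted to ½×, ¼×, ⅛× and 1/16×.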

[2] = tested on: Key Broadleaf Weed and Crop Species; experiment: Post-emergent Test II herbicidal activity (Table 5); format: in vivo; details: post-emergence, 336 h, post-emergent, 14 days after application; for pest or weed control at 70 g/ha: 70 g ai/ha; for pest or weed control at 140 g/ha: 140 g ai/ha
Outline: as §1

[3] = Triticum aestivum, TRZSS (wheat), read-out: Visual Growth Reduction (%) 14 Days After Application, TRZSS
[4] = CYPES: yellow nutsedge (Cyperus esculentus), read-out: Visual Growth Reduction (%) 14 Days After Application, CYPES
[5] = DIGSA: crabgrass (Digitaria sanguinalis), read-out: Visual Growth Reduction (%) 14 Days After Application, DIGSA
[6] = ECHCG: barnyardgrass (Echinochloa crus-galli), read-out: Visual Growth Reduction (%) 14 Days After Application, ECHCG
[7] = ORYSA: rice (Oryza sativa), read-out: Visual Growth Reduction (%) 14 Days After Application, ORYSA
[8] = SETFA: giant foxtail (Setaria faberi), read-out: Visual Growth Reduction (%) 14 Days After Application, SETFA
[9] = SORVU: grain sorghum (Sorghum vulgare), read-out: Visual Growth Reduction (%) 14 Days After Application, SORVU
[10] = ZEAMX: maize, corn (Zea mays), read-out: Visual Growth Reduction (%) 14 Days After Application, ZEAMX
[11] = ABUTH: velvetleaf (Abutilon theophrasti), read-out: Visual Growth Reduction (%) 14 Days After Application ABUTH
[12] = AMARE: redroot pigweed (Amaranthus retroflexus), read-out: Visual Growth Reduction (%) 14 Days After Application AMARE
[13] = BRSNN: oilseed-rape, canola (Brassica napus), read-out: Visual Growth Reduction (%) 14 Days After Application BRSNN
[14] = CHEAL: lambsquarters (Chenopodium album), read-out: Visual Growth Reduction (%) 14 Days After Application CHEAL
[15] = EPHHL: wild poinsettia (Euphorbia heterophylla), read-out: Visual Growth Reduction (%) 14 Days After Application EPHHL
[16] = HELAN: sunflower (Helianthus annuus), read-out: Visual Growth Reduction (%) 14 Days After Application HELAN
[17] = VIOTR: wild pansy (Viola tricolor), read-out: Visual Growth Reduction (%) 14 Days After Application VIOTR

Compound	melting point	pest or weed control at 140 g/ha [1, 3]	pest or weed control at 70 g/ha [1, 4]	pest or weed control at 140 g/ha [1, 4]	pest or weed control at 70 g/ha [1, 5]	pest or weed control at 140 g/ha [1, 5]	pest or weed control at 70 g/ha [1, 6]	pest or weed control at 140 g/ha [1, 6]	pest or weed control at 70 g/ha [1, 7]	pest or weed control at 140 g/ha [1, 7]	pest or weed control at 70 g/ha [1, 8]	pest or weed control at 140 g/ha [1, 8]	pest or weed control at 70 g/ha [1, 9]	pest or weed control at 140 g/ha [1, 9]	pest or weed control at 70 g/ha [1, 10]	pest or weed control at 140 g/ha [1, 10]	pest or weed control at 70 g/ha [2, 11]	pest or weed control at 140 g/ha [2, 11]	pest or weed control at 70 g/ha [2, 12]	pest or weed control at 140 g/ha [2, 12]	also measured
Nc1cc(-c2ccc(I)cc2F)nc(C(=O)O)c1Cl [Compound 124]	208.4 to 210.2 °C	60 to 74%	95 to 100%	95 to 100%	75 to 84%	85 to 94%	85 to 94%	85 to 94%	30 to 44%	30 to 44%	60 to 74%	95 to 100%	95 to 100%	95 to 100%	75 to 84%	75 to 84%	85 to 94%	85 to 94%	95 to 100%	95 to 100%	pest or weed control at 70 g/ha [1, 3]: 45 to 59%; pest or weed control at 70 g/ha [2, 13]: 95 to 100%; pest or weed control at 140 g/ha [2, 13]: 95 to 100%; pest or weed control at 70 g/ha [2, 14]: 95 to 100%; pest or weed control at 140 g/ha [2, 14]: 95 to 100%; pest or weed control at 70 g/ha [2, 15]: 95 to 100%; pest or weed control at 140 g/ha [2, 15]: 95 to 100%; pest or weed control at 70 g/ha [2, 16]: 85 to 94%; pest or weed control at 140 g/ha [2, 16]: 85 to 94%; pest or weed control at 70 g/ha [2, 17]: 95 to 100%; pest or weed control at 140 g/ha [2, 17]: 95 to 100%
C#Cc1ccc(-c2nc(C(=O)OC)c(Cl)c(N)c2Cl)cc1 [Compound 34]	164.2 to 166.8 °C	60 to 74%	60 to 74%	60 to 74%	0 to 29%	45 to 59%	0 to 29%	0 to 29%	0 to 29%	0 to 29%	75 to 84%	85 to 94%	30 to 44%	45 to 59%	60 to 74%	60 to 74%	95 to 100%	95 to 100%	95 to 100%	95 to 100%	pest or weed control at 70 g/ha [1, 3]: 60 to 74%; pest or weed control at 70 g/ha [2, 13]: 85 to 94%; pest or weed control at 140 g/ha [2, 13]: 95 to 100%; pest or weed control at 70 g/ha [2, 14]: 95 to 100%; pest or weed control at 140 g/ha [2, 14]: 95 to 100%; pest or weed control at 70 g/ha [2, 15]: 75 to 84%; pest or weed control at 140 g/ha [2, 15]: 85 to 94%; pest or weed control at 70 g/ha [2, 16]: 95 to 100%; pest or weed control at 140 g/ha [2, 16]: 95 to 100%; pest or weed control at 70 g/ha [2, 17]: 0 to 29%; pest or weed control at 140 g/ha [2, 17]: 0 to 29%
COC(=O)c1nc(-c2cc(F)c(I)cc2F)c(F)c(N)c1Cl [Compound 55, methyl 4-amino-3-chloro-6-(2,5-difluoro-4-iodophenyl)-5-fluoropicolinate]	142 to 144 °C	95 to 100%	95 to 100%	95 to 100%	85 to 94%	85 to 94%	95 to 100%	95 to 100%	0 to 29%	0 to 29%	95 to 100%	95 to 100%	85 to 94%	95 to 100%	60 to 74%	85 to 94%	95 to 100%	95 to 100%	95 to 100%	95 to 100%	pest or weed control at 70 g/ha [2, 13]: 95 to 100%; pest or weed control at 140 g/ha [2, 13]: 95 to 100%; pest or weed control at 70 g/ha [2, 14]: 95 to 100%; pest or weed control at 140 g/ha [2, 14]: 95 to 100%; pest or weed control at 70 g/ha [2, 15]: 95 to 100%; pest or weed control at 140 g/ha [2, 15]: 95 to 100%; pest or weed control at 70 g/ha [2, 16]: 95 to 100%; pest or weed control at 140 g/ha [2, 16]: 95 to 100%; pest or weed control at 70 g/ha [2, 17]: 95 to 100%; pest or weed control at 140 g/ha [2, 17]: 95 to 100%
